From patent US9896491B2, “Composition for treatment of multiple sclerosis” (LIFEBIO LABORATORIES LLC, priority 2009, dated 2018)

Columns and labels:
ESAMBPCAA [1] = test: Inhibition of ESAMBPCAA mediated MBP hydrolysis by synthetic oligopeptides of MBP fragment 43-68; format: biochemical, human; settings: antibodies 30 nM, MBP 4 mkM, 16 h at 37° C.; FIG. 3
Description: (§1) MBP hydrolysis by anti MBP auto antibodies was assayed as follows: Purified antibodies (0.1-1 μg) were incubated at 37° C. for 14 h in the final volume of 12.5 μl PBS, 0.02% NaN3 containing 1-2 μg of MBP. The samples were mixed with Laemmli's buffer. The extent of MBP degradation was visualized by SDS-PAGE in Tris-glycine and Tricine buffer systems. For quantitative MBP degradation assay, MBP (10 μM) was incubated at 37° C. with antibodies (60 nM) in 0.1 ml of PBS, 0.02% NaN3 for 12 h. The reaction was stopped by adding 10% TFA up to pH 2.5. The samples were further chromatographed on column C4 4.0/150 (Waters). The amount of non-cleaved MBP was calculated by absorbance monitoring at 280 nm.
The oligopeptides were assayed for their potency to inhibit ESAMBPCAA mediated MBP hydrolysis using ESAMBPCAA collected from progressive MS Patient as specified in Example 1. Different concentrations of test peptides were mixed with both antibodies (30 nM) and MBP (4 mkM) in TBS with_0.1% NaN3_and 10 mM CaCl2. The samples were incubated for 16 h at 37° C. and analyzed on 15% SDS_PAGE. The gels were stained by Coomassie and analyzed by densitometry with TOTALLAB 2.01 software (Nonlinear Dynamics, Ltd., Newcastle upon Tyne, U.K.). […] Shortening of oligopeptide lengths to less than 6 amino acids lead to complete lack of ESAMBPCAA inhibitory activity.

ESAMBPCAA [2] = test: ESAMBPCAA mediated MBP hydrolysis in serum samples of progressive MS patients in presence of test substances; format: biochemical, human; settings: for MBP-specific auto antibody mediated hydrolysis: test substance 100 nM
Description: as §1
Serum samples collected from 5 patients suffering from progressive MS were quantified for ESAMBPCAA mediated MBP hydrolysis as specified in Example 1 in presence of following substances: […]

ESAMBPCAA [3] = test: ESAMBPCAA mediated MBP hydrolysis in serum of treated EAE DA rats; format: in vivo; settings: days 8-12; for rates of MBP-specific auto antibody mediated hydrolysis: median for 6 animals
[4] = tested on: Experimental Allergic Encephalomyelitis (EAE) in DA rats; test: MDS score in EAE DA rats; format: in vivo; settings: intranasal, days 8-12; FIG. 4; dose-dependent for SEQ ID NO: 2
ESAMBPCAA [5] = test: ESAMBPCAA mediated MBP hydrolysis in serum of treated TMEV-infected SJL mice; format: in vivo; settings: 20 μg of each oligopeptide daily subcutaneous, days 14-24
Description: as §1
(§2) The BeAn strain of TMEV used in this study was generated and propagated in BHK-21 cells grown in Dulbecco's modified Eagle's medium supplemented with 7.5% donor calf serum. For i.c. infection, 30 μl of virus solution (0.2×10^6 to 6×10^6 PFU) was injected into the right cerebral hemisphere of 6- to 8-week-old SJL mice (8 animals per group) anesthetized with isoflurane. Clinical symptoms (MDS score) of disease were assessed weekly on the following grading scale: grade 0, no clinical signs; grade 1, mild waddling gait or flaccid tail; grade 2, severe waddling gait; grade 3, moderate hind limb paresis; and grade 4, severe hind limb paralysis. Serum samples collected from animals were quantified for ESAMBPCAA mediated MBP hydrolysis as specified in Example 1
(§3) At day 14 following infection mice were divided into 6 groups ([…]) and treated during 10 days (days 14-24) according following schedule: […]

[6] = tested on: Experimental MS (Theiler's Virus Infection) in SJL mice; test: Experimental MS (Theiler's Virus Infection): disease manifestation and MDS score; format: in vivo; settings: 20 μg of each oligopeptide daily subcutaneous, days 14-24
Description: as §2, §3

[7] = tested on: Experimental Allergic Encephalomyelitis (EAE) in Dark Agouti (DA) Rats; test: EAE induced by MBP 63-81 in DA rats: clinical signs score; format: in vivo
Description: Female Dark Agouti (DA) Rats, 8-9 weeks of age, about 110-145 g of weight were used as test animals.
For induction of Experimental Allergic Encephalomyelitis (EAE), rats were injected intradermally at the base of the tail with a total volume of 200 μl of inoculum containing 50 μg of MBP 63-81 (ANASPEC), in saline mixed (1:1) with Complete Freund Adjuvant, (IFA, Sigma), and 1 mg killed M. tuberculosis strain (strain H37 RA; Difco Laboratories, Detroit, Mich.). Beginning 24 hours after EAE induction the rats were followed up daily. On day 9 after the after EAE induction more than 50% of the rats developed signs of paralysis. The animals with multiple sclerosis signs were separated into 10 groups for beginning of treatment. Prior to treatment, blood was collected from 2 rats from each group. At day 9 and 11 after EAE induction, 90% of rats developed signs of EAE.
9-11 days after EAE induction the animals were divided into 9 groups (5-6 rats in each). Each group of rats was treated subcutaneously once daily with different claimed oligopeptide or theirs combinations (equimolar mix) (150 μg) or doses of positive control item (Glatiramer acetate, Copaxone, Teva) or negative control item (0.9% Sodium chloride solution), during 6 days as follows:
Copaxone, claimed oligopeptide and combinations thereof (Mechanical mix) were diluted with 0.9% Sodium chloride to a concentration of 450 μg/ml. Volume of 0.33 ml (150 μg/rat/day) was injected SC during 6 days.
After 6 days of the injections cycle the animals were maintained and followed up till day 28th post EAE induction. Clinical signs score was performed daily during study periods. Animals were observed individually during all study periods. In cases of extended observation period clinical signs were recorded once daily. Observations included changes in the fur, eyes, respiratory rate, vocalization, paralysis, activity and behavior pattern. Score of paralysis signs related to MS of each animal was done daily (during all study periods).
Score gradation was as follows: 0—Normal; 1—Tail weakness; 2—Hind leg weakness or paralysis; 3—Hind leg paralysis, dragging hind limbs; 4—Complete paralysis, unable to move; 5—Death.

[8] = tested on: secondary progressive MS patients; settings: phase I; cited from earlier work

Substance: GGDRGAPKRGSGKDSHH [SEQ ID NO: 2]
- inhibition of ESAMBPCAA activity (ESAMBPCAA mediated MBP hydrolysis) (ESAMBPCAA [1]): most potent inhibitory activity
- suppressive effect on MBP-specific auto antibody mediated hydrolysis (ESAMBPCAA [2]; 100 nM, summary of Table 3): potent suppressive effect
- MBP-specific auto antibody mediated hydrolysis (ESAMBPCAA [2]; Patient 1): 11.2 ± 3.5 pmol/min/nmol
- MBP-specific auto antibody mediated hydrolysis (ESAMBPCAA [2]; Patient 2): 17.3 ± 4.1 pmol/min/nmol
- MBP-specific auto antibody mediated hydrolysis (ESAMBPCAA [2]; Patient 3): 14.4 ± 2.2 pmol/min/nmol
- MBP-specific auto antibody mediated hydrolysis (ESAMBPCAA [2]; Patient 4): 14.5 ± 4.4 pmol/min/nmol
- MBP-specific auto antibody mediated hydrolysis (ESAMBPCAA [2]; Patient 5): 16.9 ± 7.3 pmol/min/nmol
- rates of MBP-specific auto antibody mediated hydrolysis (ESAMBPCAA [3]; Day 8 (start of treatment), 50 μg daily intranasal): 43.1 ± 6.4 pmol/min/nmol
- rates of MBP-specific auto antibody mediated hydrolysis (ESAMBPCAA [3]; Day 8 (start of treatment), 120 μg daily intranasal): 42.8 ± 5.5 pmol/min/nmol
- rates of MBP-specific auto antibody mediated hydrolysis (ESAMBPCAA [3]; Day 16, 50 μg daily intranasal): 35.6 ± 4.9 pmol/min/nmol
- rates of MBP-specific auto antibody mediated hydrolysis (ESAMBPCAA [3]; Day 16, 120 μg daily intranasal): 17.3 ± 5.4 pmol/min/nmol
- rates of MBP-specific auto antibody mediated hydrolysis (ESAMBPCAA [3]; Day 24, 50 μg daily intranasal): 46.3 ± 2.9 pmol/min/nmol
- rates of MBP-specific auto antibody mediated hydrolysis (ESAMBPCAA [3]; Day 24, 120 μg daily intranasal): 15.1 ± 3.9 pmol/min/nmol
- suppression of MBP-specific auto antibody mediated hydrolysis (ESAMBPCAA [3]; intranasal, dose-dependent for SEQ ID NO: 2): most efficiently suppressed
- suppression of MDS score [4]: most efficiently suppressed
- ESAMBPCAA activity at day 100 (ESAMBPCAA [5]): 11.4 ± 3.5 pmol/min/nmol
- suppression of MBP-specific auto antibody mediated hydrolysis (ESAMBPCAA [5]): most efficiently suppressed
- disease-preventive (prophylactic) activity [6]: disease-preventive (prophylactic) activity
- % Animals affected with disease at day 100 ([6]; 30 mice per group): 19(30) %
- suppression of MDS score ([6]; FIG. 5): most efficiently suppressed
- suppression of EAE clinical signs ([7]; 150 μg/rat/day SC during 6 days): most efficiently suppressed
- Clinical signs score on day 23 after induction (mean) ([7]; 150 μg/rat/day SC during 6 days from day 9-11 after EAE induction, score 0-5): 0.5

Substance: MBP 84-102: MBP 84-102 fragment (U.S. Pat. No. 5,858,980) (DPGSRPHLIRLFSRDAPGR; UniProt P02686 84-102, looked up, fragment)
- treatment efficacy (Expanded Disability Status Scale, Nine Hole Peg Test, new lesions by Magnetic Resonance Imaging) [8]: No treatment efficacy were detected
